Measured values reported in the NIST ThermoML archive (doi:10.1021/acs.jced.7b00690).

Assay: mn = molality of the nth substance listed, in mol/kg
Conditions: 100 kPa, Liquid, Vibrating tube method

O=C([O-])C(=O)[O-].[Na+].[Na+] [sodium oxalate] + O
Conditions	mass density [kg/m3]
298.15 K, m1 = 0.263	1025.1
298.15 K, m1 = 0.265	1020.9
298.15 K, m1 = 0.272	1020.9
323.15 K, m1 = 0.317	1020.3
323.15 K, m1 = 0.334	1022.4
343.15 K, m1 = 0.385	1016.5
